Laboratory results taken from ChEMBL document CHEMBL1201862, “PubChem BioAssay data set” (2004).
“And” between values parts separate entries of the source, which are not always exact repeats. Equal values may be shown once.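 Step 1: Grow cells in 96-well plates. Step 2: Expose to compound for 48 hours at 5 concentrations. Step 3: Interpolate endpoints linearly; if unreached, use highest concentration. At the GI50, growth is halved.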 The source made the active and inactive calls. Rule as the data show it: active = GI50 up to about 1.1 µM and inactive = higher.

How the values were obtained:
Test in all cases: NCI-60 cell line screen, 48 h
[1] = system: OVCAR-3
[2] = system: T47D
[3] = system: HCC 2998
[4] = system: MDA-MB-231
[5] = system: OVCAR-5
[6] = system: SR
[7] = system: PC-3
[8] = system: K562
[9] = system: NCI-H460
[10] = system: SNB-19
[11] = system: SK-MEL-2
[12] = system: CCRF-CEM
[13] = system: MOLT-4
[14] = system: IGROV-1
[15] = system: COLO 205
[16] = system: NCI/ADR-RES
[17] = system: SK-OV-3
[18] = system: HOP-62
[19] = system: RPMI-8226
[20] = system: MDA-MB-435
[21] = system: NCI-H23
[22] = system: UACC-62
[23] = system: HL-60
[24] = system: SK-MEL-5
[25] = system: A498
[26] = system: NCI-H226
[27] = system: M14
[28] = system: RXF 393
[29] = system: TK-10
[30] = system: SN12C
[31] = system: HCT-116
[32] = system: SF-539
[33] = system: EKVX
[34] = system: SW-620
[35] = system: OVCAR-8
[36] = system: NCI-H522
[37] = system: UO-31
[38] = system: OVCAR-4
[39] = system: BT-549
[40] = system: SNB-75
[41] = system: UACC-257
[42] = system: MCF7
[43] = system: Hs-578T
[44] = system: HT-29
[45] = system: A549
[46] = system: DU-145
[47] = system: 786-0
[48] = system: HCT-15
[49] = system: SF-295
[50] = system: SK-MEL-28
[51] = system: SF-268
[52] = system: ACHN
[53] = system: U-251
[54] = system: HOP-92
[55] = system: KM12
[56] = system: LOX IMVI
[57] = system: CAKI-1
[58] = system: Malme-3M

CC(=O)N(CCCCNC(=O)C(F)(F)F)CCCNC(=O)C(F)(F)F
GI50 [1]: > 100 µM (inactive) | GI50 [2]: > 100 µM (inactive) | GI50 [3]: > 100 µM (inactive) | GI50 [4]: > 100 µM (inactive) | GI50 [5]: > 100 µM (inactive) | GI50 [6]: > 100 µM (inactive) | GI50 [7]: > 100 µM (inactive) | GI50 [8]: > 100 µM (inactive) | GI50 [9]: > 100 µM (inactive) | GI50 [10]: > 100 µM (inactive) | GI50 [11]: > 100 µM (inactive) | GI50 [12]: > 100 µM (inactive) | GI50 [13]: > 100 µM (inactive) | GI50 [14]: > 100 µM (inactive) | GI50 [15]: > 100 µM (inactive) | GI50 [16]: > 100 µM (inactive) | GI50 [17]: > 100 µM (inactive) | GI50 [18]: > 100 µM (inactive) | GI50 [19]: > 100 µM (inactive) | GI50 [20]: > 100 µM (inactive) | GI50 [21]: > 100 µM (inactive) | GI50 [22]: > 100 µM (inactive) | GI50 [23]: > 100 µM (inactive) | GI50 [24]: > 100 µM (inactive) | GI50 [25]: > 100 µM (inactive) | GI50 [26]: > 100 µM (inactive) | GI50 [27]: > 100 µM (inactive) | GI50 [28]: > 100 µM (inactive) | GI50 [29]: > 100 µM (inactive) | GI50 [30]: > 100 µM (inactive) | GI50 [31]: > 100 µM (inactive) | GI50 [32]: > 100 µM (inactive) | GI50 [33]: > 100 µM (inactive) | GI50 [34]: > 100 µM (inactive) | GI50 [35]: > 100 µM (inactive) | GI50 [36]: > 100 µM (inactive) | GI50 [37]: > 100 µM (inactive) | GI50 [38]: > 100 µM (inactive) | GI50 [39]: > 100 µM (inactive) | GI50 [40]: > 100 µM (inactive) | GI50 [41]: > 100 µM (inactive) | GI50 [42]: > 100 µM (inactive) | GI50 [43]: > 100 µM (inactive) | GI50 [44]: > 100 µM (inactive) | GI50 [45]: > 100 µM (inactive) | GI50 [46]: > 100 µM (inactive) | GI50 [47]: > 100 µM (inactive) | GI50 [48]: > 100 µM | GI50 [49]: > 100 µM (inactive) | GI50 [50]: > 100 µM (inactive) | GI50 [51]: > 100 µM (inactive) | GI50 [52]: > 100 µM (inactive) | GI50 [53]: > 100 µM (inactive) | GI50 [54]: > 100 µM (inactive) | GI50 [55]: > 100 µM (inactive)

COc1ccc(-c2c(C#N)c(N)n(C3OC(COC(C)=O)C(OC(C)=O)C(OC(C)=O)C3OC(C)=O)c(=S)c2C#N)cc1 (stereo not given)
GI50 [2]: 18.6 µM (inactive) and 28.3 µM (inactive) | GI50 [3]: 30.3 µM (inactive) and 18.2 µM (inactive) | GI50 [4]: 27.9 µM (inactive) and 29.9 µM (inactive) | GI50 [7]: 35.8 µM (inactive) and 37.8 µM (inactive) | GI50 [9]: 47 µM (inactive) and 61.4 µM (inactive) | GI50 [10]: 40 µM (inactive) and 55.8 µM (inactive) | GI50 [11]: 22.8 µM (inactive) and 24.2 µM (inactive) | GI50 [16]: > 100 µM (inactive) and 75.2 µM (inactive) | GI50 [17]: 29.4 µM (inactive) and 26.2 µM (inactive) | GI50 [18]: 28.6 µM (inactive) and 19.8 µM (inactive) | GI50 [19]: 26.1 µM (inactive) and 30.8 µM (inactive) | GI50 [56]: 34.3 µM (inactive) and 32.9 µM (inactive) | GI50 [21]: 44 µM (inactive) and 58.6 µM (inactive) | GI50 [22]: 20.8 µM (inactive) and 20 µM (inactive) | GI50 [24]: 23.4 µM (inactive) and 21.7 µM (inactive) | GI50 [57]: 34.6 µM (inactive) and 53.1 µM (inactive) | GI50 [25]: 33.7 µM (inactive) and 28.6 µM (inactive) | GI50 [26]: 50.1 µM (inactive) and 91 µM (inactive) | GI50 [28]: 29.5 µM (inactive) and 24.5 µM (inactive) | GI50 [30]: 76.4 µM (inactive) and 43.3 µM (inactive) | GI50 [31]: 55.5 µM (inactive) and 39.4 µM (inactive) | GI50 [32]: 22.9 µM (inactive) and 40.1 µM (inactive) | GI50 [33]: 26.5 µM (inactive) and 30 µM (inactive) | GI50 [34]: > 100 µM (inactive) | GI50 [35]: 34.2 µM (inactive) and 21.3 µM (inactive) | GI50 [36]: 23.3 µM (inactive) and 25.6 µM (inactive) | GI50 [38]: 24.4 µM (inactive) and 23.4 µM (inactive) | GI50 [39]: 26.1 µM (inactive) and 26.7 µM (inactive) | GI50 [40]: 17.5 µM (inactive) and 15.6 µM (inactive) | GI50 [41]: 43.1 µM (inactive) and 23.7 µM (inactive) | GI50 [42]: 29 µM (inactive) and 22.2 µM (inactive) | GI50 [58]: 43.9 µM (inactive) and 23.9 µM (inactive) | GI50 [43]: 36.6 µM (inactive) and 27.4 µM (inactive) | GI50 [47]: 27.7 µM (inactive) and 28.6 µM (inactive) | GI50 [48]: 50.2 µM | GI50 [49]: 40.5 µM (inactive) and 35.7 µM (inactive) | GI50 [51]: 21.4 µM (inactive) and 25.5 µM (inactive) | GI50 [52]: 50.8 µM (inactive) and 33.6 µM (inactive) | GI50 [53]: 46.5 µM (inactive) and 31.7 µM (inactive) | GI50 [54]: 17.1 µM (inactive) and 19.2 µM (inactive)
